The text below walks through data of patent US5721214A, “Inhibitors of factor Xa” (COR Therapeutics, Inc., priority 1995, dated 1998).

The target of one data set is T1, thrombin (Homo sapiens, UniProt P00734).
T1 construct: The formation of thrombin is the result of the proteolytic cleavage of its precursor prothrombin
The data set can be described thus: Thrombin amidolytic assay (Chromozym TH). It counts as biochemical.

The target of a further data set is factor Xa (Homo sapiens, UniProt P00742). In words: Factor Xa amidolytic assay (chromogenic substrate S-2765). It counts as biochemical.
Sequence of factor Xa (P00742 235-488 limits assumed): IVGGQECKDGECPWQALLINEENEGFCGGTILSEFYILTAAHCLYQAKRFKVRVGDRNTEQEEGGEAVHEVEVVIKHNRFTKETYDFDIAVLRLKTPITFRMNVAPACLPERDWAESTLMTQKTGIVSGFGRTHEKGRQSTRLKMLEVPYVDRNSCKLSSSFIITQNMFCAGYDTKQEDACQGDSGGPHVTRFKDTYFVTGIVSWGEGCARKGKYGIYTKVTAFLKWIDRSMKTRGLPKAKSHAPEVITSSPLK
Sequence of factor Xa (P00742 41-179 limits assumed): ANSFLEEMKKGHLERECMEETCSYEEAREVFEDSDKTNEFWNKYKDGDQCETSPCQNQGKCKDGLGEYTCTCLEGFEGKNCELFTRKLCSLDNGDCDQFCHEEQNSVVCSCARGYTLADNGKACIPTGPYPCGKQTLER
The target of another data set is prothrombinase complex (Homo sapiens, UniProt P00742). The data set can be described thus: Prothrombinase inhibition assay, plasma free system. Type of data set: biochemical. Particulars: 5 min preincubation, factor Xa 0.5 nM, factor Va 2 nM, pH 7.5; read-out: Inhibitory Activity (IC50) Prothrombinase.
Sequence of prothrombinase complex (P00742 235-488 limits assumed): as the sequence (P00742 235-488 limits assumed) above
Sequence of prothrombinase complex (P00742 41-179 limits assumed): as the sequence (P00742 41-179 limits assumed) above
Data set [1] in a line: Pharmacokinetics/Pharmacodynamics in rabbits after I.V. bolus. Type of data set: in vivo. To be noted: rabbit.
Data set [2] relates to thrombus growth in abdominal vena cava. The data set can be described thus: Rabbit deep vein thrombosis model. It counts as in vivo. Particulars: for Hct / PLT / RBC / WBC: mean±SD. The text has this:
Haemost. […] Rabbits were anesthetized with I.M. injections of Ketamine, Xylazine, and Acepromazine cocktail.

The mark [3] stands for this setting: 5 min preincubation, room temperature, pH 7.5, read-out: Inhibitory Activity (IC50) Thrombin.
Where [4] appears, read: 5 min preincubation, room temperature, pH 7.5, read-out: Inhibitory Activity (IC50) Factor Xa.

Like-named read-outs stand apart in the source and are kept apart here. Numbered stars: 1 amine (or outer) side, 2 acyl side, 3 side chain; on linkers, the order of the positions; unused ones are H or OH. Square brackets hold non-standard residues; d marks the D form. Peptide text beside a SMILES is read from it. * marks the point of attachment. d(hArg) = N=C(N)NCCCC[C@@H](N)C(=O)O; Hydrocinnamoyl = O=C(CCc1ccccc1)*; dCit = NC(=O)NCCC[C@@H](N)C(=O)O; Suc = O=C(CCC(=O)[*:2])[*:1]; Boc = CC(C)(C)OC(=O)*; Aib = CC(C)(N)C(=O)O Some results are limits rather than exact numbers.

Consider `CC(C)(C)OC(=O)N[C@H](CCCNC(=N)N)C(=O)NCCC(=O)N[C@H](C=O)CCCNC(=N)N` [Boc--D--Arg--β-Ala--Arg--H, Boc-D-Arg-β-Ala-Arg-H], for which the concentration for half-maximal inhibition (IC50) (commonly the point on the concentration scale where inhibition reaches its midpoint) on thrombin (setting [3]) is above 500000 nM.

`CC(C)(C)OC(=O)N[C@H](CCCNC(N)=O)C(=O)NCC(=O)N[C@H](C=O)CCCN=C(N)N` [Boc--D--Cit--Gly--Arg--H, Boc-D-Cit-Gly-Arg-H] (Boc-[dCit]-Gly-Arg-aldehyde): the results for the IC50 against factor Xa and on prothrombinase complex were 5000 nM and 44000 nM, respectively.

Compound `N=C(N)NCCC[C@@H](C=O)NC(=O)CNC(=O)[C@@H](CCCNC(=N)N)NC(=O)COc1ccc2ccccc2c1` [2-NaphthoxyAc--D--Arg--Gly--Arg--H, 2-Napthoxyacetyl-D-Arg-Gly-Arg-H] returned an IC50 on thrombin above 100000 nM.

Regarding `N=C(N)NCCC[C@@H](C=O)NC(=O)CNC(=O)[C@@H](CCCNC(=N)N)NC(=O)C(=O)O` [HOOCCO--D--Arg--Gly--Arg--H, Oxaloyl-D-Arg-Gly-Arg-H], on prothrombinase complex, the IC50 turned out to be 630 nM.

In the case of `CC(C)(C)OC(=O)N[C@H](CCCN=C(N)N)C(=O)NCC(=O)N[C@H](C=O)CCCN=C(N)N` [Boc--D--Arg--Gly--Arg--H, Boc-D-Arg-Gly-Arg-H] (Boc-[dR]-Gly-Arg-aldehyde), the “changes in hematological parameters as compared to saline controls” value in data set [1] (2.0 mg/kg I.V. bolus) was “no significant changes”. Also, in data set [1] (I.V.), the “mean clearance value (CL)” value is listed as 1.16 mL/min/kg and the volume of distribution was 0.1183 L/kg. The compound also had a mean plasma half-life in data set [1] (I.V., n=3) of 1.18 h. Also, in data set [2] (200 + 1.98 μg/kg + μg/kg/min), the Hct amounted to 36.9 ± 3.90%, the PLT is listed as 393 ± 84 10^3 /μL, the RBC is on record as 5.69 ± 0.14 10^6 /μL and the WBC is listed as 4.45 ± 0.97 10^3 /μL. In addition, in data set [2] (600 + 5.94 μg/kg + μg/kg/min), the Hct amounted to 35.3 ± 3.01%, the PLT was 442 ± 81 10^3 /μL, the RBC is 5.74 ± 0.48 10^6 /μL and the WBC is 3.87 ± 0.65 10^3 /μL. Further, in data set [2] (1000 + 9.90 μg/kg + μg/kg/min), the Hct came out at 35.5 ± 1.01%, the PLT is reported as 375 ± 73 10^3 /μL, the RBC is given as 5.71 ± 0.28 10^6 /μL and the WBC was 5.09 ± 1.61 10^3 /μL. Moreover, in data set [2] (1500 + 14.85 μg/kg + μg/kg/min), the Hct is 36.0 ± 3.31%, the PLT is listed as 433 ± 22 10^3 /μL, the RBC is on record as 5.80 ± 0.50 10^6 /μL and the WBC is reported as 4.82 ± 1.01 10^3 /μL. Besides, the “effects on hematological parameters as compared to saline controls” value in data set [2] (bolus + infusion) is “no significant effects”.

`C[C@@H](NC(=O)[C@@H](CCCNC(=N)N)NC(=O)OC(C)(C)C)C(=O)N[C@H](C=O)CCCNC(=N)N` [Boc--D--Arg--D--Ala--Arg--H, Boc-D-Arg-D-Ala-Arg-H] (Boc-[dR]-[dA]-Arg-aldehyde): the IC50 on factor Xa (setting [4]) came to 230 nM.

`N=C(N)NCCC[C@@H](C=O)NC(=O)CNC(=O)[C@@H](CCCNC(=N)N)NC(=O)CCC(=O)O` [HOOC(CH2)2 CO--D--Arg--Gly--Arg--H, Succinoyl-D-Arg-Gly-Arg-H] (Suc-[dR]-Gly-Arg-aldehyde): at factor Xa (setting [4]), the IC50 was found to be 224 nM.

As for `C[C@H](NC(=O)[C@@H](CCCNC(=N)N)NC(=O)OC(C)(C)C)C(=O)N[C@H](C=O)CCCNC(=N)N` [Boc--D--Arg--Ala--Arg--H, Boc-D-Arg-Ala-Arg-H] (Boc-[dR]-Ala-Arg-aldehyde), on factor Xa (setting [4]), the IC50 worked out at 167 nM.

With `NC(N)=NCCC[C@@H](C=O)NC(=O)CNC(=O)[C@H](N)CCCN=C(N)N` [H--D--Arg--Gly--Arg--H, D-Arg-Gly-Arg-H] (H-[dR]-Gly-Arg-aldehyde), the IC50 at factor Xa is 64 nM; on prothrombinase complex it was 830 nM; against thrombin it was 41000 nM.

In the case of `CC(C)(C)OC(=O)N[C@H](CCCCN)C(=O)NCC(=O)N[C@H](C=O)CCCNC(=N)N` [Boc--D--Lys--Gly--Arg--H, Boc-D-Lys-Gly-Arg-H] (Boc-[dK]-Gly-Arg-aldehyde), the IC50 on factor Xa (setting [4]) came out at 10000 nM.

With `N=C(N)NCCC[C@@H](C=O)NC(=O)CNC(=O)[C@@H](CCCNC(=N)N)NC(=O)CCc1ccccc1` [PhCH2 CH2 CO--D--Arg--Gly--Arg--H, 3-Phenylpropanoyl-D-Arg-Gly-Arg-H] (Hydrocinnamoyl-[dR]-Gly-Arg-aldehyde), the figures for the IC50 on factor Xa (setting [4]), on prothrombinase complex and at thrombin (setting [3]) were 200 nM, 2000 nM and 75000 nM, respectively.

As for `N=C(N)NCCC[C@@H](C=O)NC(=O)CNC(=O)[C@@H](CCCNC(=N)N)NS(=O)(=O)Cc1ccccc1` [PhCH2 SO2 --D--Arg--Gly--Arg--H, Benzylsulfonyl-D-Arg-Gly-Arg-H], the IC50 against thrombin was determined as 33000 nM.

Regarding `CC(C)(C)OC(=O)N[C@H](CCCNC(=N)N)C(=O)NCC(=O)N[C@H](C=O)CCCNC(=N)N` [Boc--D--Arg--Gly--Arg--H, Boc-D-Arg-Gly-Arg-H] (Boc-[dR]-Gly-Arg-aldehyde), the IC50 at factor Xa (setting [4]) turned out to be 50 nM. In addition, in data set [1] (2.0 mg/kg I.V. bolus), the anticoagulative effect result is recorded as “plasma concentration-dependent anticoagulative effect”. Moreover, the “% Inhibition of Thrombosis” value in data set [2] (200 + 1.98 μg/kg + μg/kg/min) was 8.4%; in data set [2] (600 + 5.94 μg/kg + μg/kg/min), -6.6%; in data set [2] (1000 + 9.90 μg/kg + μg/kg/min), 58.6%; in data set [2] (1500 + 14.85 μg/kg + μg/kg/min), 31.4%. The “antithrombotic efficacy in the rabbit venous thrombosis model” value in data set [2] (bolus + infusion, all doses evaluated) is “demonstrated antithrombotic efficacy at the higher doses evaluated”.

For the compound `CC(C)(C)OC(=O)N[C@H](CCCNC(=N)N)C(=O)NC(C)(C)C(=O)N[C@H](C=O)CCCNC(=N)N` [Boc--D--Arg--Aib--Arg--H, Boc-D-Arg-Aib-Arg-H] (Boc-[dR]-[Aib]-Arg-aldehyde), at factor Xa (setting [4]), the IC50 was found to be 552 nM.

Take `N=C(N)NCCC[C@@H](C=O)NC(=O)CNC(=O)[C@@H](CCCNC(=N)N)NC(=O)CC(=O)O` [HOOCCH2 CO--D--Arg--Gly--Arg--H, Malonoyl-D-Arg-Gly-Arg-H]: the half-inhibitory concentration (IC50) at factor Xa turned out to be 98 nM.

As to `CN(C)C(=NCCCC[C@@H](NC(=O)OC(C)(C)C)C(=O)NCC(=O)N[C@H](C=O)CCCNC(=N)N)N(C)C` [Boc--D--Har((CH3)4)--Gly--Arg--H, Boc-D-Har((CH3)4)-Gly-Arg-H], at thrombin (setting [3]), the IC50 was above 100000 nM.

`CCOC(=O)N[C@H](CCCN=C(N)N)C(=O)NCC(=O)N[C@H](C=O)CCCN=C(N)N` [EtOCO--D--Arg--Gly--Arg--H, EtO2 C-D-Arg-Gly-Arg-H] showed an IC50 at factor Xa of 49 nM.

Take `CC(C)(C)OC(=O)N[C@H](CCCCNC(=N)N)C(=O)NCC(=O)N[C@H](C=O)CCCNC(=N)N` [Boc--D--Har--Gly--Arg--H, Boc-D-Har-Gly-Arg-H] (Boc-[d(hArg)]-Gly-Arg-aldehyde): the IC50 on factor Xa (setting [4]) was 100 nM; on prothrombinase complex, 173 nM; on thrombin (setting [3]), 405000 nM.
